We go through five molecules from patent US20110117212A1, “THERAPEUTIC COMBINATION COMPRISING AN AURORA KINASE INHIBITOR AND AN ANTINEOPLASTIC AGENT” (priority 2008, published 2011).

The test system of series [1] is A2780 human ovarian carcinoma. Put plainly: In vivo antitumor efficacy in combination with cisplatin. Conditions: A2780 s.c. in athymic mice; Compound 1 15 mg/kg ip BID days 13-17; cisplatin 8 mg/kg iv day 17; combination: same doses and days. As to the method: A2780 human ovarian carcinoma cells were obtained from American Type Culture Collection (Rockville, Md.) and were maintained in vitro as continuous cultures in RPMI medium supplemented with 10% FBS, at 37° C., 5% CO2. For in vivo experiments 8×10^6 A2780 cells were implanted subcutaneously in athymic mice.
(§1) The treatment started when tumors were palpable (day 13). Both compounds were prepared immediately before treatment.
Tumor growth was assessed by caliper. […] Animals were sacrificed on day 37 after tumor implant, day 24 from the start of treatments and tumors were weighted. The effect of the antitumor treatment was evaluated as percentage of tumor growth inhibition of the treated group respect to control.

Series [2] has as its system BX-PC3 human pancreatic carcinoma. Put plainly: In vivo antitumor efficacy in combination with gemcitabine. The conditions noted are these: BX-PC3 s.c. in athymic mice; compound 1 15 mg/kg ip BID days 9-17; gemcitabine 80 mg/kg iv days 9, 13, 17; combination: gemcitabine days 9, 13, 17, compound 1 days 10, 11, 12, 14, 15, 16, 18, 19, 20. On the procedure: Fragments of BX-PC3 human pancreatic carcinoma were implanted subcutaneously in athymic mice. […] The treatment with gemcitabine started at day 9 after tumor implantation, when tumors were palpable. Compounds were prepared immediately before treatments.
When combined, gemcitabine was administered at days 9, 13, 17 and compound 1 was administered for the following 3 days after gemcitabine administration. […] Tumor growth was assessed by caliper. […] The effect of the antitumor treatment was evaluated as percentage of tumor growth inhibition (TGI %). Toxicity was evaluated on the basis of body weight reduction.

In series [3] the test system is DU145 prostate carcinoma. Conditions: DU145 s.c. in athymic mice; delay to reach 1 g tumor; Compound 1 30 mg/kg ip BID days 10-18; docetaxel 7.5 mg/kg iv days 10, 14, 18; combination: docetaxel days 10, 14, 18, Compound 1 days 11, 12, 13, 15, 16, 17, 19, 20, 21. On the procedure:
Balb, Nu\Nu male mice, from Harlan (Italy), were maintained in cages with paper filter cover, food and bedding sterilized and water acidified. 2.5×10^6 DU145 prostate carcinoma cells (from the American Type Culture Collection) were injected subcutaneously in athymic mice.
The treatment started 10 days later tumor cells injection when tumors were palpable. Docetaxel was prepared immediately before treatment, compound 1 of formula (A) was prepared daily, on the basis of known stability of the compound.
Compound 1 was administered by intraperitoneal route in a volume of 10 ml/kg at the doses of 30 mg/kg twice a day (BID) for 9 days (days 10 to 18). Docetaxel was administered by intravenous route in a volume of 10 ml/kg at the dose of 7.5 mg/kg on days 10, 14, 18 from the days of cell injection. When combined, compound 1 was administered in the interval between the docetaxel treatments at days 11, 12, 13, 15, 16, 17, 19, 20 and 21. Tumor growth and body weight were measured every 3 days. Tumor growth was assessed by caliper. The two diameters were recorded and the tumor weight was calculated according the following formula:
length (mm)×width^2/2. The effect of the antitumor treatment was evaluated as the delay in the onset of an exponential growth of the tumor (see for references, Anticancer drugs 7:437-60, 1996). […] Toxicity was evaluated on the basis of body weigh reduction.

Series [4] relates to A2780 human ovarian carcinoma. Put plainly: In vivo antitumor efficacy of the combination with irinotecan. Conditions: for TGI %: A2780 s.c. in athymic mice, Compound 1 30 mg/kg ip BID days 13-17, irinotecan 60 mg/kg iv day 13, combination: irinotecan 50 mg/kg day 13 + Compound 1 30 mg/kg days 13-17. On the procedure:
A2780 human ovarian carcinoma cells were obtained from American Type Culture Collection (Rockville, Md.) and were maintained in vitro as continuous cultures in RPMI medium supplemented with 10% FBS, at 37° C., 5% CO2. For in vivo experiments 8×10^6 A2780 were implanted subcutaneously in athymic mice. This tumor model was selected because it was sensitive to platinum derivatives and also on the basis of use of this drugs in ovarian cancer.
as §1
When combined, compound 1 was administered from day 1 to day 5, irinotecan at day 1. […] Tumor growth was assessed by caliper. […] Animals were sacrificed on day 37 after tumor implant, day 24 from the start of treatments and tumors were weighted. The effect of the antitumor treatment was evaluated as percentage of tumor growth inhibition of the treated group respect to control.

As for `N.N.[Cl][Pt][Cl]` [Cisplatin, cisplatin], the TGI % in series [1] is 21%. As for `CO[C@@H](C(=O)N1Cc2[nH]nc(NC(=O)c3ccc(N4CCN(C)CC4)cc3)c2C1)c1ccccc1` [Compound 1, N-{5-[(2R)-2-methoxy-2-phenylethanoyl]-1,4,5,6-tetrahydropyrrolo[3,4-c]pyrazol-3-yl}-4-(4-methylpiperazin-1-yl)benzamide], the TGI % in series [2] is on record as 53%; in series [4] it was 72.3%; in series [1], 46%. For the same molecule, the “T-C” value in series [3] was 5.3 days. Consider `CC(=O)O[C@@]12CO[C@@H]1C[C@H](O)[C@@]1(C)C(=O)[C@H](O)C3=C(C)[C@@H](OC(=O)[C@H](O)[C@@H](NC(=O)OC(C)(C)C)c4ccccc4)C[C@@](O)([C@@H](OC(=O)c4ccccc4)[C@H]21)C3(C)C` [docetaxel], for which the “T-C” value in series [3] is on record as 3.7 days. Regarding `Nc1ccn([C@@H]2O[C@H](CO)[C@@H](O)C2(F)F)c(=O)n1` [gemcitabine], the TGI % in series [2] worked out at 61%. Consider `CCc1c2c(nc3ccc(OC(=O)N4CCC(N5CCCCC5)CC4)cc13)-c1cc3c(c(=O)n1C2)COC(=O)[C@]3(O)CC` [irinotecan], for which the TGI % in series [4] is 62%. Moreover, the Toxicity in series [4] (evaluated on the basis of body weight reduction, A2780 mice, Compound 1 30 mg/kg ip BID, irinotecan iv, alone or combined) was 0/7.
